This is an account of results in patent US5770599A, “Quinazoline derivatives” (Zeneca Limited, priority 1995, dated 1998).

Assay [1] deals with EGF receptor tyrosine kinase. The settings on record: Fry et al., Science, 1994, 265, 1093; cited from earlier work.
The subject of assay [2] is human vulval epidermoid carcinoma cell line A-431. The experiment in a line: Test (c): in vivo inhibition of growth of A-431 xenografts in athymic nude mice. The settings on record: Mus musculus, A-431, 312 h; usually oral, once daily, 13 days; approximately. Further details: species or system human (xenograft in athymic nude mice). The method, then:
(c) An in-vivo assay in a group of athymic nude mice (strain ONU:Alpk) which determines the ability of a test compound (usually administered orally as a ball-milled suspension in 0.5% polysorbate) to inhibit the growth of xenografts of the human vulval epidermoid carcinoma cell line A-431.
A-431 cells were maintained in culture in DMEM supplemented with 5% FCS and 2 mM glutamine. Freshly cultured cells were harvested by trypsinization and injected subcutaneously (10 million cells/0.1 ml/mouse) into both flanks of a number of donor nude mice. When sufficient tumour material was available (after approximately 9 to 14 days), fragments of tumour tissue were transplanted in the flanks of recipient nude mice (test day 0). Generally, on the seventh day after transplantation (test day 7) groups of 7 to 10 mice with similar-sized tumours were selected and dosing of the test compound was commenced. Once daily dosing of test compound was continued for a total of 13 days (test days 7 to 19 inclusive). In some studies the dosing of the test compound was continued beyond test day 19, for example to test day 26. In each case, on the following test day the animals were killed and the final tumour volume was calculated from measurements of the length and width of the tumours. Results were calculated as a percentage inhibition of tumour volume relative to untreated controls.

For assay [3], the system named is human naso-pharyngeal cancer cell line KB. The experiment in a line: cells. The assay is classed as cell-based. The note with it: 72 h, values stated as approximate, EGF 10 ng/ml, 3 days, read-out: Test (b) IC50. The method, then:
(b) An in vitro assay which determines the ability of a test compound to inhibit the EGF-stimulated growth of the human naso-pharyngeal cancer cell line KB.
Cell growth was determined after incubation for 3 days by the extent of metabolism of MTT tetrazolium dye to furnish a bluish colour. Cell growth was then determined in the presence of EGF (10 ng/ml) or in the presence of EGF (10 ng/ml) and a test compound at a range of concentrations. An IC50 value could then be calculated.

The target in assay [4] is T1, EGF receptor tyrosine kinase (Homo sapiens, UniProt P00533).
T1 construct: Receptor tyrosine kinase was obtained in partially purified form from A-431 cells; endogenous in cells; host or cells: A-431 cells (human vulval carcinoma); solubilised membrane fraction
T1 sequence (P00533 25-1210): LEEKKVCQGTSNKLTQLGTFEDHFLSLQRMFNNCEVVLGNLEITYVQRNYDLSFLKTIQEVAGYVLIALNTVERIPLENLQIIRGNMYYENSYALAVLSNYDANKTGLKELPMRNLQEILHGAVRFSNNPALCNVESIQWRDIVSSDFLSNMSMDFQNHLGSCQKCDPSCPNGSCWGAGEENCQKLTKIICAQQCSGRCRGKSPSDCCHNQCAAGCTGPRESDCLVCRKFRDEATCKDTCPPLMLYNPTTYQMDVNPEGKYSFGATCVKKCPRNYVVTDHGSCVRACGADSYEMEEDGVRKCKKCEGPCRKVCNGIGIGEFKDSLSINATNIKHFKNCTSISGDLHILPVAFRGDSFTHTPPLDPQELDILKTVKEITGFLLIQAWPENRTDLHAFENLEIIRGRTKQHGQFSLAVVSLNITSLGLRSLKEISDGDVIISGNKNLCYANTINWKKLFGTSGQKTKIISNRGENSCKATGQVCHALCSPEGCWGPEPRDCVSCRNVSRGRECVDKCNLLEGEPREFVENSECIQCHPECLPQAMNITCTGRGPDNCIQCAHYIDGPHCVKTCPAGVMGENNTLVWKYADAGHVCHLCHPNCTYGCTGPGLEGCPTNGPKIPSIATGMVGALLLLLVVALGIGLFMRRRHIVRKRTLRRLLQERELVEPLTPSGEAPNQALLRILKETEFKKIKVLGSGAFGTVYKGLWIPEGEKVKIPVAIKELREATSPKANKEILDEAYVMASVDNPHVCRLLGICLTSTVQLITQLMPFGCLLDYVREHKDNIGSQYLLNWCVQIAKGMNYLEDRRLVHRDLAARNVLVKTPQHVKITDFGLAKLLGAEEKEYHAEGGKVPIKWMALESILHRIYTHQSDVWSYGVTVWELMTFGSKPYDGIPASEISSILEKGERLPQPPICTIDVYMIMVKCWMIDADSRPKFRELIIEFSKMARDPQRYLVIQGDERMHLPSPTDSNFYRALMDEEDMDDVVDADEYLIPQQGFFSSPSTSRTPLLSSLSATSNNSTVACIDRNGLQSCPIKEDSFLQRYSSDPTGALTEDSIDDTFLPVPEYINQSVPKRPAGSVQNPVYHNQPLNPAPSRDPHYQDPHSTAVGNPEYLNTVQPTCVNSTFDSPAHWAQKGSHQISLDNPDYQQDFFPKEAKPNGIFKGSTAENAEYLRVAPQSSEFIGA
Nature of the assay: Test (a): in vitro assay of inhibition of the enzyme EGF receptor tyrosine kinase (32P peptide phosphorylation). It is filed as biochemical. As for the experimental part:
(a) An in vitro assay which-determines the ability of a test compound to inhibit the enzyme EGF receptor tyrosine kinase.
A-431 cells were grown to confluence using Dulbecco's modified Eagle's medium (DMEM) containing 5% fetal calf serum (FCS). […] The homogenate was centrifuged at 400 g for 10 minutes at 0°-4° C. The supernatant was centrifuged at 25,000 g for 30 minutes at 0°-4° C. The pelleted material was suspended in 30 mM Hepes buffer at pH 7.4 containing 5% glycerol, 4 mM benzamidine and 1% Triton X-100, stirred for 1 hour at 0°-4° C., and recentrifuged at 100,000 g for 1 hour at 0°-4° C. The supernatant, containing solubilised receptor tyrosine kinase, was stored in liquid nitrogen.
There was thus obtained the test enzyme solution.
Equal volumes of this solution and a solution of epidermal growth factor (EGF; 20 μg/ml) were mixed.
[γ-^32 P]ATP (3000 Ci/mM, 250 μCi) was diluted to a volume of 2 ml by the addition of a solution of ATP (100 μM) in distilled water. An equal volume of a 4 mg/ml solution of the peptide […]in a mixture of 40 mM Hepes buffer at pH 7.4, 0.1% Triton X-100 and 10% glycerol was added.
The test compound/EGF mixture solution (5 μl) was added to the test enzyme solution (10 μl) and the mixture was incubated at 0°-4° C. for 30 minutes. The ATP/peptide mixture (10 μl) was added and the mixture was incubated at 25° C. for 10 minutes. The phosphorylation reaction was terminated by the addition of 5% trichloroacetic acid (40 μl ) and bovine serum albumin (BSA; 1 mg/ml, 5 μl). The mixture was allowed to stand at 4° C. for 30 minutes and then centrifuged. An aliquot (40 μl) of the supernatant was placed onto a strip of Whatman p 81 phosphocellulose paper. The strip was washed in 75 mM phosphoric acid (4×10 ml) and blotted dry. Radioactivity present in the filter paper was measured using a liquid scintillation counter (Sequence A). The reaction sequence was repeated in the absence of the EGF (Sequence B) and again in the absence of the test compound (Sequence C).

Assay [5] has as its system another carcinoma which does not express EGF receptor tyrosine kinase. The settings on record: Toi et al., 1990; cited from earlier work.
[6] abbreviates: values stated as approximate, EGF receptor tyrosine kinase from A-431 cells.

Read-outs that look alike come from different tables or passages of the source.

On to `COc1cc2ncnc(Nc3cccc(Br)c3)c2cc1OC` [4-(3'-bromoanilino)-6,7-dimethoxyquinazoline], for which the “inhibition of EGF receptor tyrosine kinase” value in assay [1] is on record as “highly potent inhibitor of EGF receptor tyrosine kinase”.

Consider `COc1cc2ncnc(Nc3ccc(F)c(Cl)c3)c2cc1OCCCN1CCOCC1` [Example 1, 4-(3'-chloro-4'-fluoroanilino)-7-methoxy-6-(3-morpholinopropoxy)quinazoline], for which the ED50 (in general, the dose at which the effect has come halfway, by size or by number of responders) in assay [2] was around 12.5 mg/kg.

Turning to `COc1cc2ncnc(Nc3ccc(F)c(Cl)c3)c2cc1OCCN1CCOCC1` [Example 3, 4-(3'-chloro-4'-fluoroanilino)-7-methoxy-6-(2-morpholinoethoxy)quinazoline], the half-maximal inhibitory concentration (IC50) (as a rule, the point on the concentration scale where inhibition reaches its midpoint) was determined as 400 nM in assay [3] and 10 nM in assay [4] (setting [6]).

As to `COc1cc2ncnc(Nc3ccc(F)c(Cl)c3)c2cc1OCCN1CCN(C)CC1` [Example 4, 4-(3'-chloro-4'-fluoroanilino)-7-methoxy-6-[2-(4-methylpiperazin-1-yl)ethoxy]quinazoline], the concentration for half-maximal inhibition (IC50) turned out to be 100 nM in assay [3] and 10 nM in assay [4].

For the molecule `COCCN(CCOC)CCOc1cc2c(Nc3ccc(F)c(Cl)c3)ncnc2cc1OC` [Example 5, 4-(3'-chloro-4'-fluoroanilino)-7-methoxy-6-{2-[di-(2-methoxyethyl)amino]ethoxy}quinazoline], the 50% inhibitory concentration (IC50) was 200 nM in assay [3] and 60 nM in assay [4] (setting [6]).

Turning to `COc1cc2ncnc(Nc3ccc(F)c(Cl)c3)c2cc1OCCN(C)C` [Example 6, 4-(3'-chloro-4'-fluoroanilino)-6-(2-dimethylaminoethoxy)-7-methoxyquinazoline], the concentration for half-maximal inhibition (IC50) in assay [3] came out at 100 nM; in assay [4] (setting [6]), 10 nM.

Regarding `CCN(CC)CCOc1cc2c(Nc3ccc(F)c(Cl)c3)ncnc2cc1OC` [Example 7, 4-(3'-chloro-4'-fluoroanilino)-6-(2-diethylaminoethoxy)-7-methoxyquinazoline], the IC50 in assay [3] worked out at 300 nM; in assay [4] (setting [6]) it was 90 nM.

Turning to `COc1cc2ncnc(Nc3ccc(F)cc3F)c2cc1OCCCN(C)C` [Example 8, 4-(2',4'-difluoroanilino)-6-(3-dimethylaminopropoxy)-7-methoxyquinazoline], the IC50 in assay [3] is 900 nM; in assay [4] (setting [6]) it was 480 nM.

On to `COc1cc2ncnc(Nc3ccc(F)c(Cl)c3)c2cc1OCC(O)CN1CCOCC1` (stereo not shown) [Example 9, 4-(3'-chloro-4'-fluoroanilino)-6-(2-hydroxy-3-morpholinopropoxy)-7-methoxyquinazoline], for which the results for the concentration for half-maximal inhibition (IC50) in assay [3] and in assay [4] (setting [6]) were 100 nM and 10 nM, respectively.

With `COc1cc2ncnc(Nc3ccc(F)cc3F)c2cc1OCCCN1CCOCC1` [Example 14, 4-(2',4'-difluoroanilino)-7-methoxy-6-(3-morpholinopropoxy)quinazoline], the results for the concentration for half-maximal inhibition (IC50) in assay [3] and in assay [4] (setting [6]) were 300 nM and 670 nM, respectively.

Consider `COc1cc2ncnc(Nc3ccc(F)c(F)c3)c2cc1OCCCN(C)C` [Example 18, 4-(3',4'-difluoroanilino)-6-(3-dimethylaminopropoxy)-7-methoxyquinazoline], for which the IC50 in assay [3] came out at 390 nM; in assay [4] (setting [6]), 270 nM.

For the molecule `COc1cc2ncnc(Nc3ccc(F)c(F)c3)c2cc1OCCCN1CCOCC1` [Example 19, 4-(3',4'-difluoroanilino)-7-methoxy-6-(3-morpholinopropoxy)quinazoline], the IC50 in assay [3] was 450 nM; in assay [4] (setting [6]), 520 nM.

`CCN(CC)CCCOc1cc2c(Nc3ccc(F)c(F)c3)ncnc2cc1OC` [Example 20, 6-(3-diethylaminopropoxy)-4-(3',4'-difluoroanilino)-7-methoxyquinazoline]: the half-inhibitory concentration (IC50) in assay [3] was 550 nM; in assay [4] (setting [6]), 670 nM.

On to `O=CN/C=C/c1cc(O)ccc1O` [erbstatin], for which the “growth of another carcinoma not expressing EGF receptor tyrosine kinase” value in assay [5] is “without effect on the growth”.
